Structures can show the parent of a compound that is named as a salt.
How the values were obtained:
Type in all cases: biochemical
Human thrombin = biological target: T1, Human thrombin (Homo sapiens, UniProt P00734); experiment: Thrombin assay (chromogenic substrate); details: reported only as less than or greater than 30 uM; read-out: Thrombin (II) IC50
T1 construct: converts prothrombin (II) to thrombin (IIa); purchased Calbiochem, La Jolla, Calif
Description: Percent inhibition of thrombin activity is calculated from OD405 nm value from the experimental and control sample.
(§1) Recombinant human VIIa was purchased from American Diagnostica, Greenwich CT and chromogenic substrate N-methylsulfonyl-D-phe-gly-arg-p-nitroaniline was prepared by American Peptide Company, Inc., Sunnyvale, Calif. Factor Xa was obtained from Enzyme Research Laboratories, South Bend Ind., thrombin from Calbiochem, La Jolla, Calif., and trypsin and L-BAPNA from Sigma, St. Louis Mo.

Human factor Xa = biological target: T2, Human factor Xa (Homo sapiens, UniProt P00742); experiment: Xa assay (chromogenic substrate S-2765); details: reported only as less than or greater than 30 uM; read-out: Factor Xa (II) IC50
T2 construct: purchased Enzyme Research Laboratories, South Bend Ind
T2 sequence (P00742 235-488 limits assumed): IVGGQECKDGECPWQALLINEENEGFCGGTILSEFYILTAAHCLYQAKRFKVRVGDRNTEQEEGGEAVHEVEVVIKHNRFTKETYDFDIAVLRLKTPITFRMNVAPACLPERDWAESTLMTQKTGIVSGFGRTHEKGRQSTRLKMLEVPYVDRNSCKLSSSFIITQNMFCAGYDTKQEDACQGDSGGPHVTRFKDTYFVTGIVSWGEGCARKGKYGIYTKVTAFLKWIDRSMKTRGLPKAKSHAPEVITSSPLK
T2 sequence (P00742 41-179 limits assumed): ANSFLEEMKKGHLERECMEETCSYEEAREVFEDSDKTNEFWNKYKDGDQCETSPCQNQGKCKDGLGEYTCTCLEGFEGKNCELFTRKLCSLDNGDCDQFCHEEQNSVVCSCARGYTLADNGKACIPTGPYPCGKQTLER
Description: Human factor Xa (0.3 nM) and 0.15 mM -a-Benzyloxycarbonyl-D-arginyl-L-glycyl-L-arginine-p-nitroaniline-dihydrochloride (S-2765) are added to a 96-well assay plate containing either inhibitor or buffer (50 mM Tris-HCl, pH 8.0, 100 mM NaCl, 0.1% BSA). The reaction, in a final volume of 100 ul is measured immediately at 405 nm to determine background absorbance. The plate is incubated at room temperature for 60 min, at which time the rate of hydrolysis of the substrate is measured by monitoring the reaction at 405 nm for the release of p-nitroaniline. Percent inhibition of Xa activity is calculated from OD405 nm value from the experimental and control sample.
Recombinant soluble TF, consisting of amino acids 1-219 of the mature protein sequence was expressed in E. coli and purified using a Mono Q Sepharose FPLC. Recombinant human VIIa was purchased from American Diagnostica, Greenwich CT and chromogenic substrate N-methylsulfonyl-D-phe-gly-arg-p-nitroaniline was prepared by American Peptide Company, Inc., Sunnyvale, Calif. Factor Xa was obtained from Enzyme Research Laboratories, South Bend Ind., thrombin from Calbiochem, La Jolla, Calif., and trypsin and L-BAPNA from Sigma, St. Louis Mo. The chromogenic substrates S-2765 and S-2238 were purchased from Chromogenix, Sweden.

[1] = biological target: T3, recombinant soluble tissue factor and recombinant human factor VIIa (TF-VIIa) (Homo sapiens, UniProt P08709); experiment: TF-VIIa assay (chromogenic substrate hydrolysis); details: reported only as less than or greater than 0.1 uM
T3 construct: conversion of coagulation factor VII to VIIa by factor Xa; purchased American Diagnostica, Greenwich CT; host or cells: soluble TF made in house in E. coli
T3 sequence (P08709 213-466 limits assumed): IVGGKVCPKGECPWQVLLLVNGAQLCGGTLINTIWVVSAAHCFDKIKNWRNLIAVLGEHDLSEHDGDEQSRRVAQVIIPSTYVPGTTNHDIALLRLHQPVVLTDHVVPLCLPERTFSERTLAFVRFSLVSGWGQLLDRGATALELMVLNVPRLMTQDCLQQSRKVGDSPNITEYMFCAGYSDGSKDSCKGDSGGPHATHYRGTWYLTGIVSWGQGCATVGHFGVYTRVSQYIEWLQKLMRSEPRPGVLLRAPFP
T3 sequence (P08709 61-212 limits assumed): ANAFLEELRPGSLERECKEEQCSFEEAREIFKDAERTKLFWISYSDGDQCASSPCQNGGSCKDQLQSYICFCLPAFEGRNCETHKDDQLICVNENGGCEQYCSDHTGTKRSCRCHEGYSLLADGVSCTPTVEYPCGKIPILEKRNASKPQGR
T3 sequence (P13726 33-251 partner limits assumed): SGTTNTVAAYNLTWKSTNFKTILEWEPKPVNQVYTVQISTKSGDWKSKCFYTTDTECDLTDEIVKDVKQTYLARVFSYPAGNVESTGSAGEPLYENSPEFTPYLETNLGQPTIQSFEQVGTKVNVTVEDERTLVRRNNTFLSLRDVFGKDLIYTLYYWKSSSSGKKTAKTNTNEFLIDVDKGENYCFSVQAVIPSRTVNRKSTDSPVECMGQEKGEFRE
Description: In this assay 100 nM recombinant soluble tissue factor and 2 nM recombinant human factor VIIa are added to a 96-well assay plate containing 0.4 mM of the substrate, N-methylsulfonyl-D-phe-gly-arg-p-nitroaniline and either inhibitor or buffer (5 mM CaCl2, 50 mM Tris-HCl, pH 8.0, 100 mM NaCl, 0.1% BSA). […] Percent inhibition of TF-VIIa activity is calculated from OD405 nm value from the experimental and control sample.
as §1

SMILES	IC50 (Human thrombin) [µM]	IC50 (Human factor Xa) [µM]	IC50 [1] [µM]
COC(=O)c1cc(N)cc(-c2ncc(NC(C)C)c(=O)n2CC(=O)NCc2ccc(C(=N)N)cc2)c1 [Example 1]	> 30	> 30	< 0.1
CC(C)Nc1cnc(-c2cc(N)cc(C(=O)O)c2)n(CC(=O)NCc2ccc(C(=N)N)cc2)c1=O [Example 2]	> 30	> 30	< 0.1
CC(C)CNC(=O)c1cc(N)cc(-c2cnc(NC(C)C)c(=O)n2CC(=O)NCc2ccc(C(=N)N)cc2)c1 [Example 5]	< 30	> 30	< 0.1
CC(C)Nc1ncc(-c2cc(N)cc(C(=O)NCc3cccc(F)c3)c2)n(CC(=O)NCc2ccc(C(=N)N)cc2)c1=O [Example 8]	> 30	> 30	< 0.1
CC(C)Nc1ncc(-c2cc(N)cc(C(=O)NC3CCCCCC3)c2)n(CC(=O)NCc2ccc(C(=N)N)cc2)c1=O [Example 9]	< 30	> 30	< 0.1
CC(C)Nc1ncc(-c2cc(N)cc(C(=O)NC3CCCC3)c2)n(CC(=O)NCc2ccc(C(=N)N)cc2)c1=O [Example 11]	< 30	< 30	< 0.1
CC(C)Nc1ncc(-c2cc(N)cc(C(=O)NC[Si](C)(C)C)c2)n(CC(=O)NCc2ccc(C(=N)N)cc2)c1=O [Example 12]	> 30	> 30	< 0.1
CC(C)Nc1ncc(-c2cc(N)cc(C(=O)NC(C)(C)c3ccccc3)c2)n(CC(=O)NCc2ccc(C(=N)N)cc2)c1=O [Example 13]	< 30	> 30	< 0.1
COC(=O)c1cc(N)cc(-c2cnc(NC(C)C)c(=O)n2CC(=O)NCc2c(F)c(O)c(C(=N)N)c(F)c2F)c1 [Example 20]	> 30	> 30	> 0.1
COC(=O)c1cc(N)cc(-c2cnc(NC(C)C)c(=O)n2CC(=O)NCc2ccc(C(=N)N)cc2)c1 [Example 21, Methyl 3-amino-5-[1-[2-({4-[amino(imino)methyl]benzyl}amino)-2-oxoethyl]-5-(isopropylamino)-6-oxo-1,6-dihydropyrazin-2-yl]benzoate Trifluoroacetate]	> 30	> 30	< 0.1
COC(=O)Cc1cc(N)c(OC)c(-c2cnc(NC(C)C)c(=O)n2CC(=O)NCc2ccc(C(=N)N)cc2)c1 [Example 22, Methyl {3-amino-5-[1-[2-({4-[amino(imino)methyl]benzyl}amino)-2-oxoethyl]-5-(isopropylamino)-6-oxo-1,6-dihydropyrazin-2-yl]-4-methoxyphenyl}acetate]	> 30	> 30	> 0.1
COc1c(N)cc(CC(=O)O)cc1-c1cnc(NC(C)C)c(=O)n1CC(=O)NCc1ccc(C(=N)N)cc1 [Example 23, {3-Amino-5-[1-[2-({4-[amino(imino)methyl]benzyl}amino)-2-oxoethyl]-5-(isopropylamino)-6-oxo-1,6-dihydropyrazin-2-yl]-4-methoxyphenyl}acetic Acid]	> 30	> 30	> 0.1
CC(C)Nc1ncc(-c2cc(N)cc(C(=O)NCc3ccccc3)c2)n(CC(=O)NCc2ccc(C(=N)N)cc2)c1=O [Example 25]	< 30	> 30	< 0.1
COCCNC(=O)c1cc(N)cc(-c2cnc(NC(C)C)c(=O)n2CC(=O)NCc2ccc(C(=N)N)cc2)c1 [Example 26, 3-amino-5-[1-[2-({4-[amino(imino)methyl]benzyl}amino)-2-oxoethyl]-5-(isopropylamino)-6-oxo-1,6-dihydropyrazin-2-yl]-N-(2-methoxyethyl)benzamide]	> 30	> 30	< 0.1
CC(C)CNC(=O)c1cc(N)cc(-c2cnc(NC(C)C)c(=O)n2CC(=O)NCc2ccc(C(=N)N)cc2)c1 [Example 27]	> 30	> 30	< 0.1
CC(C)Nc1ncc(-c2cc(N)cc(C(=O)NCCO)c2)n(CC(=O)NCc2ccc(C(=N)N)cc2)c1=O [Example 30]	> 30	> 30	> 0.1
CC(C)Nc1nc(Cl)c(-c2cc(N)ccc2SCc2ccccc2)n(CC(=O)NCc2ccc(C(=N)N)cc2)c1=O [Example 31]	> 30	> 30	> 0.1
CC(C)Nc1ncc(-c2cc(N)cc(C(=O)NCC(=O)O)c2)n(CC(=O)NCc2ccc(C(=N)N)cc2)c1=O [Example 32]	> 30	> 30	> 0.1
CC(C)Nc1ncc(-c2cc(N)cc(C(=O)NCCc3ccc(F)cc3)c2)n(CC(=O)NCc2ccc(C(=N)N)cc2)c1=O [Example 33]	> 30	> 30	< 0.1
CNc1ncc(-c2cc(N)cc(C(=O)OC)c2)n(CC(=O)NCc2ccc(C(=N)N)cc2)c1=O [Example 36]	> 30	> 30	> 0.1

SMILES	IC50 (Human thrombin) [µM]	IC50 (Human factor Xa) [µM]	IC50 [1] [µM]
CNc1ncc(-c2cc(N)cc(C(=O)O)c2)n(CC(=O)NCc2ccc(C(=N)N)cc2)c1=O [Example 37]	> 30	> 30	> 0.1
CNC(=O)c1cc(N)cc(-c2cnc(NC(C)C)c(=O)n2CC(=O)NCc2ccc(C(=N)N)cc2)c1 [Example 38]		> 30	< 0.1
COCCNC(=O)c1cc(N)cc(-c2cnc(NC(C)C)c(=O)n2CC(=O)NCc2ccc(C(=N)N)cc2)c1 [Example 39]		> 30	< 0.1
CC(C)Nc1ncc(-c2cc(N)cc(C(=O)NCCN3CCOCC3)c2)n(CC(=O)NCc2ccc(C(=N)N)cc2)c1=O [Example 40]		> 30	< 0.1
CC(C)Nc1ncc(-c2cc(N)cc(C(=O)NCCN3CCCC3)c2)n(CC(=O)NCc2ccc(C(=N)N)cc2)c1=O [Example 41]		> 30	< 0.1
CONC(=O)c1cc(N)cc(-c2cnc(NC(C)C)c(=O)n2CC(=O)NCc2ccc(C(=N)N)cc2)c1 [Example 42]		> 30	< 0.1
CC(C)Nc1ncc(-c2cc(N)cc(C(=O)NC(C)(CO)CO)c2)n(CC(=O)NCc2ccc(C(=N)N)cc2)c1=O [Example 43]		> 30	< 0.1
CCOC(=O)c1cc(N)cc(-c2cnc(NC(C)C)c(=O)n2CC(=O)NCc2ccc(C(=N)N)cc2)c1 [Example 44]		> 30	< 0.1
CC(C)Nc1ncc(-c2cc(N)cc(C(=O)NC(C)(C)CCO)c2)n(CC(=O)NCc2ccc(C(=N)N)cc2)c1=O [Example 45]		> 30	< 0.1
CC(C)Nc1ncc(-c2cc(N)cc(C(N)=O)c2)n(CC(=O)NCc2ccc(C(=N)N)cc2)c1=O [Example 47]		> 30	< 0.1
COC(=O)c1cc(N)cc(-c2cnc(NC(C)C)c(=O)n2CC(=O)NCc2c(F)c(F)c(C(=N)N)c(F)c2F)c1 [Example 48]	> 30	> 30	> 0.1
CCCCN(CCCC)c1cc(N)cc(-c2cnc(NC(C)C)c(=O)n2CC(=O)NCc2ccc(C(=N)N)cc2)c1 [Example 149]			> 0.1
CC(C)Nc1ncc(-c2cc(N)cc(NC(=O)C3CCNCC3)c2)n(CC(=O)NCc2ccc(C(=N)N)cc2)c1=O [Example 150]			< 0.1
CC(C)Nc1ncc(-c2cc(N)cc(NC(=O)C3CCCNC3)c2)n(CC(=O)NCc2ccc(C(=N)N)cc2)c1=O (stereo not drawn) [Example 151]			< 0.1
CC(C)Nc1ccc(-c2cc(N)cc(N)c2)n(CC(=O)NCc2ccc(C(=N)N)cc2)c1=O [Example 163]			> 0.1
N=C(N)c1c(O)c(F)c(CNC(=O)Cn2c(-c3cc(N)cc(C(F)(F)F)c3)cnc(NC3CC3)c2=O)c(F)c1F [Example 243]	> 30		> 0.1
CC[C@@H](C)NC(=O)c1cc(N)cc(-c2cnc(NC(C)C)c(=O)n2CC(=O)NCc2c(O)cc(C(=N)N)cc2OCC(=O)O)c1 [Example 244]	> 30		> 0.1
CC[C@@H](C)NC(=O)c1cc(N)cc(-c2cnc(N[C@@H](C)CO)c(=O)n2CC(=O)NCc2ccc(C(=N)N)cc2)c1 [Example 248]	< 30		< 0.1
CC[C@@H](C)NC(=O)c1cc(N)cc(-c2cnc(NC(C)C)c(=O)n2CC(=O)NCc2c(O)cc(C(=N)N)cc2OCc2cccnc2)c1 [Example 255]	> 30		> 0.1

— US20040106626A1, “6-Membered unsaturated heterocyclic compounds useful for selective inhibition of the coagulation cascade” (Pharmacia Corporation, priority 2001, published 2004)
